Measurements published in patent US9353067B2, “Heterocyclic compounds and uses thereof in the treatment of sexual disorders” (ATIR Holding S.A., priority 2011, dated 2016).
Values joined by “and” are separate entries in the source; they are usually repeats but may differ in a detail not shown here. Equal values may be shown once. Read-outs that look alike come from different tables or passages of the source.

What was measured:
[1] = Pharmacokinetics of R-55 following intravenous administration in pigs; type: in vivo, White Landrace female pigs; conditions: 0.2 mg/kg intravenous
Procedure: R-55 and related compounds were assayed in the plasma samples using a Waters (USA) Alliance high performance liquid chromatograph coupled with a Waters Micromass ZQ quadruple mass spectrometer (in ESI+ mode) as a detector with Waters Empower chromatographic and mass spectrometric software for chromatographic data acquisition, processing and instrument control.
The tested compound was extracted from plasma using dichloromethane, followed by concentration by evaporating the extract and dissolution in a low volume chromatographic mobile phase.
The instrument was calibrated using plasma spiked with various concentrations of the tested compound. Enrofloxacin (m/z=360.4) was used as an internal standard.
In order to investigate the pharmacokinetics of R-55, the presence of R-55 in plasma was measured following intravenous administration of R-55 in pigs.
White Landrace female pigs were acclimatized for 2days prior to treatment. 3 pigs were administered 0.2 mg/kg R-55 by intravenous injection at a dose volume of 0.2 ml/kg. Blood samples were withdrawn from each pig via a jugular vein catheter at the following time points: immediately prior to injection (t=0), and 5 minutes, 10 minutes, 15 minutes, 30 minutes, 45 minutes, 60 minutes, 90 minutes, 2 hours, 3 hours, 4 hours, and 6 hours post-injection. All samples were collected in a K3EDTA tube (Greiner). Blood samples were stored on crushed ice after collection. Plasma was separated by centrifugation (10 minutes at 3000 rotations per minute), within two hours post-sampling. Each plasma sample was divided into two aliquots before freezing. Plasma samples were then stored at −20° C. until being dispatched for LCMS analysis.
Clinical observations were performed during the six hours following application.
Pharmacokinetic analysis was performed using the WINNONLIN version 5.0 (Pharsight, USA) computerized software. Area under curves of concentration vs. time (AUC) were calculated using the log linear trapezoidal rule. Area under curves were determined for the time period for which concentrations were measured, i.e., t=0 to 6 hours (AUCall), and for an infinite time period (AUCINF), as determined by extrapolation of the curve to t=∞.

Adrenergic α2 receptor = assay: Competitive binding, rauwolscine radioligand; set-up: species or system Wistar rat
Procedure: (§1) R-55 (which comprises a 3-hydroxyphenyl moiety) and the structurally related compounds N-108 (2-{[4-(2-ethoxyphenyl)piperazin-1-yl]methyl}quinazolin-4(3H)-one) and B-39 (7-chloro-2-((5,6-dihydro-4-(2-methoxyphenyl)pyridin-1(2H)-yl)methyl)quinazolin-4(3H)-one) were assayed for competitive binding to a variety of receptors, including D4.4 type dopamine receptor, in order to assess their specificity for D4.4 dopamine receptors.
(§2) The receptors were expressed as human recombinant proteins in CHO cells, except for adrenergic α1 and α2 receptors which were expressed in Wistar rat brain and cerebral cortex cells, respectively, and melanocortin MC4 receptor which was expressed in human recombinant HEK-293 cells. Binding was determined using the following radioligands in the presence of various concentrations of the tested compound:
0.7 nM rauwolscine for adrenergic α2 receptor,
(§3) The binding assays were performed in accordance with procedures described in the literature (Greengrass & Bremner, 1979; Boyajian & Leslie, 1987; Broadhurst, 1988; Lewis, 2001; Sutton, 1995; Dearry, 1990; Zhou, 1990; Grandy, 1989; Hayes, 1992; Sokoloff, 1990; Van Tol, 1991; Van Tol 1992; Sunahara, 1991; Weinshank, 1991; Schioth, 1996; Schioth 1997; Martin & Humphrey, 1994; May, 2003; Wolf & Schutz, 1997).

CRF1 receptor = CRF1 receptor (Homo sapiens (Human), UniProt P34998); assay: Competitive binding, (Tyr0)-CRF radioligand
Chain of CRF1 receptor (P34998 24-415): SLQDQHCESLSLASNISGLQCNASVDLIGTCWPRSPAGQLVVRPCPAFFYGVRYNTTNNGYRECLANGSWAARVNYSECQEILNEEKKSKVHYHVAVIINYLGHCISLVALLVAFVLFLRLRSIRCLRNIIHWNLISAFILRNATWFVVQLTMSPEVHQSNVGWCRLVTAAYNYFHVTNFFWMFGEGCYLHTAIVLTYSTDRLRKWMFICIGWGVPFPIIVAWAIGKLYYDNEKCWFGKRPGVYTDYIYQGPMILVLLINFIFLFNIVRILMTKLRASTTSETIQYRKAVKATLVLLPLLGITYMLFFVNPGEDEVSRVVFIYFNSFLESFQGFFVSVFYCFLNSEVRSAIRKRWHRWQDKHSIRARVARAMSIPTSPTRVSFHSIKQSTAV
Procedure: as §1, §2
0.05 nM)(Tyr^0)-corticotropin releasing factor (CRF) for corticotropin releasing factor CRF1 receptor,
as §3

Dopamine D2S receptor = Dopamine D2S receptor (Homo sapiens (Human), UniProt P14416); assay: Competitive binding, spiperone radioligand
Chain of Dopamine D2S receptor (P14416 other isoform, or with tags, fused parts or gaps): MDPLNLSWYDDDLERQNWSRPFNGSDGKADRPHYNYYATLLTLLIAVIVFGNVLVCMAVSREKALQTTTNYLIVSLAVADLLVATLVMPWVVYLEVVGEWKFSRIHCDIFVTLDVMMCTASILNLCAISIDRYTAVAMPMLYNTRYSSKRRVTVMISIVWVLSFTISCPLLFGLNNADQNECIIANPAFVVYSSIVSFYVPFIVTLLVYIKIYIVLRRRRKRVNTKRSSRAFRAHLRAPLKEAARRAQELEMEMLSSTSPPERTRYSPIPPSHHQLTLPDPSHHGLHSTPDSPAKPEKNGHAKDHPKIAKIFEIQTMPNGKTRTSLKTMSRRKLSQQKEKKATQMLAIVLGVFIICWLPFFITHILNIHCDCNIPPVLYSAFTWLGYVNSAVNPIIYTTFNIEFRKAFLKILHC
Procedure: as §1, §2
(§4) 0.16 nM, 0.7 nM and 1.2 nM spiperone, respectively, for dopamine D2S, D3 and D4.4 receptors,
as §3

Dopamine D3 receptor = Dopamine D3 receptor (Homo sapiens (Human), UniProt P35462); assay: Competitive binding, spiperone radioligand
Chain of Dopamine D3 receptor (P35462 whole entry): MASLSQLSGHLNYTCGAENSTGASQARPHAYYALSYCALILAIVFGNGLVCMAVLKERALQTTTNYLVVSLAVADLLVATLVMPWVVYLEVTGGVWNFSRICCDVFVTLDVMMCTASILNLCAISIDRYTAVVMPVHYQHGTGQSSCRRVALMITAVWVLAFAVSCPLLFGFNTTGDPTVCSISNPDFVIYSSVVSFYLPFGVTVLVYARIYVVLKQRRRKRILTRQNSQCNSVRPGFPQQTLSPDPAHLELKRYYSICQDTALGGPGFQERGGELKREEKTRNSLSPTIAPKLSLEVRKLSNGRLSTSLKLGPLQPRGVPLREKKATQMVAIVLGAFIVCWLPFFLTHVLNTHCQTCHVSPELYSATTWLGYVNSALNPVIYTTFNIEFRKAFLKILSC
Procedure: as §1, §2, §4, §3

Dopamine D4.4 receptor = Dopamine D4.4 receptor (Homo sapiens (Human), UniProt P21917); assay: Competitive binding, spiperone radioligand
Chain of Dopamine D4.4 receptor (P21917 whole entry): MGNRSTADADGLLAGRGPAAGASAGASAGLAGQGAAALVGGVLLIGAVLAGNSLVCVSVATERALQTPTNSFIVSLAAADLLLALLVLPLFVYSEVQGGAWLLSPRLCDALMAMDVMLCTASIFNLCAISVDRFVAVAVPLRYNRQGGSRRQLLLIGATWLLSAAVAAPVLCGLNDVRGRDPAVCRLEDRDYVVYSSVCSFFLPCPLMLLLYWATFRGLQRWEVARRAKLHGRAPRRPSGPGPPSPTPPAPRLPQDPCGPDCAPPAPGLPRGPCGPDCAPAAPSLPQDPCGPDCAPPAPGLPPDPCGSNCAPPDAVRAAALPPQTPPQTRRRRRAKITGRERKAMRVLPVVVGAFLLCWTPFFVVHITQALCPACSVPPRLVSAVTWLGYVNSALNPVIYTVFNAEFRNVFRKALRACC
Procedure: as §1, §2, §4, §3

[2] = target: Serotonin 5-HT1A receptor (Homo sapiens (Human), UniProt P08908); assay: Competitive binding, 8-OH-DPAT radioligand
Chain of Serotonin 5-HT1A receptor (P08908 whole entry): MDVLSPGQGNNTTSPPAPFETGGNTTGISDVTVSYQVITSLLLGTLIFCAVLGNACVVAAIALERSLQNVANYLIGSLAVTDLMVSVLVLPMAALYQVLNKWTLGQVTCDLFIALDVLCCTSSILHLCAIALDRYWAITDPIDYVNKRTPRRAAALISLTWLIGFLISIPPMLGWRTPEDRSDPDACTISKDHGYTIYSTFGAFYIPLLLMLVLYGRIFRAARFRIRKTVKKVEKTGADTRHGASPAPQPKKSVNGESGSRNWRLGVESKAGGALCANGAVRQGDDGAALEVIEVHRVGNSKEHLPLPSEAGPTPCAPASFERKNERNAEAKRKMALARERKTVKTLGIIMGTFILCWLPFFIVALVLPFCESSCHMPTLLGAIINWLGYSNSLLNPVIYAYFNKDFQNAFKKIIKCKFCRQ
Procedure: as §1, §2
1.5 nM 8-OH-DPAT for serotonin 5-HT1A receptor, and
as §3

[3] = target: Serotonin 5-HT2C receptor (Homo sapiens (Human), UniProt P28335); assay: Competitive binding, mesulergine radioligand
Chain of Serotonin 5-HT2C receptor (P28335 33-458): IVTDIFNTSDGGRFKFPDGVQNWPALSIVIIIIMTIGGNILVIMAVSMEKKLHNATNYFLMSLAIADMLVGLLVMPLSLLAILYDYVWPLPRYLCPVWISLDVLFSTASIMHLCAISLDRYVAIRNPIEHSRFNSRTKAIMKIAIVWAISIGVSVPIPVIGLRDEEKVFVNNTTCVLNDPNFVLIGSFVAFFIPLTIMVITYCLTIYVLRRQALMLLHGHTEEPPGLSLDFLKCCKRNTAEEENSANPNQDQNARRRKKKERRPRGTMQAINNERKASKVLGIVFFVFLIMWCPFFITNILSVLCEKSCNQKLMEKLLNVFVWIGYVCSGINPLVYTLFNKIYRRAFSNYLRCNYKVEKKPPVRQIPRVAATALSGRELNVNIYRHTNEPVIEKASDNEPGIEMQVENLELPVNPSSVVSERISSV
Procedure: as §1, §2
1 nM mesulergine for serotonin 5-HT2C receptor.
as §3

Time to elimination from the bloodstream after administration [1]: ≤ 30 min
R-55 plasma concentration ([1]; 0 minutes (immediately prior to injection), individual animals #1-#3): 0 ng/mL
R-55 plasma concentration ([1]; 5 minutes after injection, individual animals #1-#3): 122.1 ng/mL and 142.2 ng/mL
R-55 plasma concentration ([1]; 10 minutes after injection, individual animals #1-#3): 112.9 ng/mL and 83.0 ng/mL
R-55 plasma concentration ([1]; 15 minutes after injection, individual animals #1-#3): 30.4 ng/mL and 76.8 ng/mL and 52.8 ng/mL
R-55 plasma concentration ([1]; 30 minutes after injection, individual animals #1-#3): 0 ng/mL and 24.9 ng/mL and 22.3 ng/mL
R-55 detection in plasma ([1]; 45 minutes or more following administration): No R-55 was detected
Cmax - maximal concentration ([1]; individual animals): 122.1 ng/mL and 142.2 ng/mL
Mean residence time ([1]; individual animals): 17.0 min and 15.8 min
Volume of distribution ([1]; individual animals): 1.193 L/kg and 1.3081 L/kg
Volume of distribution at steady state ([1]; individual animals): 1.3589 L/kg and 1.5093 L/kg
concentration at 0 min ([1]; female, White Landrace, pig, plasma, iv, 0.2 mg/kg, 0 minutes (immediately prior to injection), individual animals #1-#3): 0 ng/mL
concentration at 5 min ([1]; female, White Landrace, pig, plasma, iv, 0.2 mg/kg, 5 minutes after injection, individual animals #1-#3): 158 ng/mL
concentration at 10 min ([1]; female, White Landrace, pig, plasma, iv, 0.2 mg/kg, 10 minutes after injection, individual animals #1-#3): 86.7 ng/mL
AUC(0-inf) ([1]; female, White Landrace, pig, plasma, iv, 0.2 mg/kg, extrapolation to infinite time, individual animals): 32.1 ng·h/mL
Clearance ([1]; female, White Landrace, pig, plasma, iv, 0.2 mg/kg, individual animals, read-out: Clearance): 104 mL/min/kg
Cmax ([1]; female, White Landrace, pig, plasma, iv, 0.2 mg/kg, individual animals, read-out: Cmax - maximal concentration): 158 ng/mL
MRT ([1]; female, White Landrace, pig, plasma, iv, 0.2 mg/kg, individual animals, read-out: Mean residence time (converted)): 14.5 min
half-life ([1]; female, White Landrace, pig, plasma, iv, 0.2 mg/kg, individual animals, read-out: T1/2 - half-life): 9 to 10 min
Vd ([1]; female, White Landrace, pig, plasma, iv, 0.2 mg/kg, individual animals, read-out: Volume of distribution): 1.3 L/kg
Vd ([1]; female, White Landrace, pig, plasma, iv, 0.2 mg/kg, individual animals, read-out: Volume of distribution at steady state): 1.51 L/kg
AUC ([1]; female, White Landrace, pig, plasma, iv, 0.2 mg/kg, t=0 to 6 hours, individual animals): 27.9 ng·h/mL
Competitive binding (%) at 5 μM of tested compound (Adrenergic α2 receptor): 39%
Competitive binding (%) at 5 μM of tested compound (CRF1 receptor): 3%
Competitive binding (%) at 5 μM of tested compound (Dopamine D2S receptor): 7%
Competitive binding (%) at 5 μM of tested compound (Dopamine D3 receptor): 5%
Competitive binding (%) at 5 μM of tested compound (Dopamine D4.4 receptor; Dopamine D4.4 receptor, 5 μM): 31%
binding affinity to the D4.4 receptor (in words) (Dopamine D4.4 receptor; Table 8): high binding affinity
Competitive binding (%) at 5 μM of tested compound [2]: 7%
Competitive binding (%) at 5 μM of tested compound [3]: 5%
Structure (SMILES): O=c1[nH]c(CN2CCN(c3cccc(O)c3)CC2)nc2ccccc12 [Compound R-55, 2-((4-(3-hydroxyphenyl)piperazin-1-yl)methyl)quinazolin-4-one]
AUCINF ([1]; extrapolation to infinite time, individual animals): 2501.3 ng·min/mL and 2132.2 ng·min/mL
Clearance ([1]; individual animals): 80.0 mL/min/kg and 93.8 mL/min/kg
T1/2 - half-life ([1]; individual animals): 8.67 min and 10.34 min and 9.67 min
Clinical observations (side effects) ([1]; six hours following application): No abnormal side effects were observed
AUCall ([1]; t=0 to 6 hours, individual animals): 2129.0 ng·min/mL and 1821.3 ng·min/mL
